According to the supplement of paper PMC5908809:

Tests used:
[1] = test system: IMC-1 (IL-2 20 ng/mL); experiment: drug sensitivity score (DSS) (DSS units); higher = more sensitive; extreme values may be limits of the assay; conditions: 72 h
[2] = test system: normal primary NK cells, pool 3 (3 donors) (IL-2 2.5 ng/mL); experiment: as above; conditions: 72 h
[3] = test system: YT (IL-2 2.5 ng/mL); experiment: as above; conditions: 72 h
[4] = test system: NK-92 (IL-2 2.5 ng/mL); experiment: as above; conditions: 72 h
[5] = test system: SNK-6 (IL-2 2.5 ng/mL); experiment: as above; conditions: 72 h
[6] = test system: NK-YS (IL-2 2.5 ng/mL); experiment: as above; conditions: 72 h
[7] = test system: NKL (IL-2 2.5 ng/mL); experiment: as above; conditions: 72 h
[8] = test system: DERL-7 (IL-2 2.5 ng/mL); experiment: as above; conditions: 72 h
[9] = test system: normal primary NK cells, pool 1 (3 donors) (IL-2 2.5 ng/mL); experiment: as above; conditions: 72 h
[10] = test system: KHYG-1 (IL-2 2.5 ng/mL); experiment: as above; conditions: 72 h
[11] = test system: normal primary NK cells, pool 1 (3 donors), resting (IL-2 0 ng/mL); experiment: as above; conditions: 72 h
[12] = test system: KAI3 (IL-2 2.5 ng/mL); experiment: as above; conditions: 72 h
[13] = test system: normal primary NK cells, pool 2 (3 donors) (IL-2 2.5 ng/mL); experiment: as above; conditions: 72 h
[14] = test system: normal NK cells expanded with K562-aAPC; experiment: percent inhibition of viability; higher = more inhibition; conditions: 72 h, IL-2 2.5 ng/mL
Procedure: (§1)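 Drug sensitivity and resistance testing on K562-aAPC-expanded normal NK cells: 5 concentrations (10-fold steps over a 10,000-fold range), 72 h at 37 °C, viability by CellTiter-Glo normalised to DMSO and benzethonium chloride controls; DSS from the fitted curve.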

[15] = test system: IMC-1 (IL-2 20 ng/mL); experiment: as above; conditions: 72 h
[16] = test system: normal primary NK cells, pool 3 (3 donors) (IL-2 2.5 ng/mL); experiment: as above; conditions: 72 h
[17] = test system: YT (IL-2 2.5 ng/mL); experiment: as above; conditions: 72 h
[18] = test system: NK-92 (IL-2 2.5 ng/mL); experiment: as above; conditions: 72 h
[19] = test system: SNK-6 (IL-2 2.5 ng/mL); experiment: as above; conditions: 72 h
[20] = test system: NK-YS (IL-2 2.5 ng/mL); experiment: as above; conditions: 72 h
[21] = test system: NKL (IL-2 2.5 ng/mL); experiment: as above; conditions: 72 h
[22] = test system: DERL-7 (IL-2 2.5 ng/mL); experiment: as above; conditions: 72 h
[23] = test system: normal primary NK cells, pool 1 (3 donors) (IL-2 2.5 ng/mL); experiment: as above; conditions: 72 h
[24] = test system: KHYG-1 (IL-2 2.5 ng/mL); experiment: as above; conditions: 72 h
[25] = test system: normal primary NK cells, pool 1 (3 donors), resting (IL-2 0 ng/mL); experiment: as above; conditions: 72 h
[26] = test system: KAI3 (IL-2 2.5 ng/mL); experiment: as above; conditions: 72 h
[27] = test system: normal primary NK cells, pool 2 (3 donors) (IL-2 2.5 ng/mL); experiment: as above; conditions: 72 h
[28] = test system: normal NK cells expanded with K562-aAPC; experiment: drug sensitivity score (DSS) (DSS units); higher = more sensitive; extreme values may be limits of the assay; conditions: 72 h; IL-2 2.5 ng/mL
Procedure: as §1

COc1ccc(-c2ccc3c(N4CCOC[C@@H]4C)nc(N4CCOC[C@@H]4C)nc3n2)cc1CO [AZD8055] (max concentration tested 10000 nM)
drug sensitivity score [1]: 0.56
drug sensitivity score [2]: 2.13
drug sensitivity score [3]: 17.3
drug sensitivity score [4]: 20.7
drug sensitivity score [5]: 19.1
drug sensitivity score [6]: 18.9
drug sensitivity score [7]: 25.5
drug sensitivity score [8]: 27.5
drug sensitivity score [9]: 8.04
drug sensitivity score [10]: 18.6
drug sensitivity score [11]: 0
drug sensitivity score [12]: 20.6
drug sensitivity score [13]: 4.67
percent inhibition of viability ([14]; 1 nM): 6.73%
percent inhibition of viability ([14]; 10 nM): 19.9%
percent inhibition of viability ([14]; 100 nM): 29.3%
percent inhibition of viability ([14]; 1000 nM): 42.1%
percent inhibition of viability ([14]; 10000 nM): 41.3%
percent inhibition of viability ([15]; 1 nM): 1.04%
percent inhibition of viability ([15]; 10 nM): -9.13%
percent inhibition of viability ([15]; 100 nM): -36.4%
percent inhibition of viability ([15]; 1000 nM): 1.86%
percent inhibition of viability ([15]; 10000 nM): 16.9%
percent inhibition of viability ([16]; 1 nM): -5.43%
percent inhibition of viability ([16]; 10 nM): 8.78%
percent inhibition of viability ([16]; 100 nM): 9.67%
percent inhibition of viability ([16]; 1000 nM): 14.1%
percent inhibition of viability ([16]; 10000 nM): 16.9%
percent inhibition of viability ([17]; 1 nM): 7.4%
percent inhibition of viability ([17]; 10 nM): 12.9%
percent inhibition of viability ([17]; 100 nM): 43.8%
percent inhibition of viability ([17]; 1000 nM): 56.6%
percent inhibition of viability ([17]; 10000 nM): 68.3%
percent inhibition of viability ([18]; 1 nM): 8.5%
percent inhibition of viability ([18]; 10 nM): 22.1%
percent inhibition of viability ([18]; 100 nM): 48.4%
percent inhibition of viability ([18]; 1000 nM): 64.4%
percent inhibition of viability ([18]; 10000 nM): 97.2%
percent inhibition of viability ([19]; 1 nM): -1.89%
percent inhibition of viability ([19]; 10 nM): 12.4%
percent inhibition of viability ([19]; 100 nM): 53.8%
percent inhibition of viability ([19]; 1000 nM): 54.5%
percent inhibition of viability ([19]; 10000 nM): 54.5%
percent inhibition of viability ([20]; 1 nM): 4.19%
percent inhibition of viability ([20]; 10 nM): 9.89%
percent inhibition of viability ([20]; 100 nM): 45.4%
percent inhibition of viability ([20]; 1000 nM): 66.8%
percent inhibition of viability ([20]; 10000 nM): 78.2%
percent inhibition of viability ([21]; 1 nM): 9.88%
percent inhibition of viability ([21]; 10 nM): 42.8%
percent inhibition of viability ([21]; 100 nM): 61.2%
percent inhibition of viability ([21]; 1000 nM): 63.9%
percent inhibition of viability ([21]; 10000 nM): 61.8%
percent inhibition of viability ([22]; 1 nM): 0.54%
percent inhibition of viability ([22]; 10 nM): 34.1%
percent inhibition of viability ([22]; 100 nM): 65.8%
percent inhibition of viability ([22]; 1000 nM): 86.8%
percent inhibition of viability ([22]; 10000 nM): 88.3%
percent inhibition of viability ([23]; 1 nM): -5.65%
percent inhibition of viability ([23]; 10 nM): 6.16%
percent inhibition of viability ([23]; 100 nM): 8.42%
percent inhibition of viability ([23]; 1000 nM): 38.2%
percent inhibition of viability ([23]; 10000 nM): 29.2%
percent inhibition of viability ([24]; 1 nM): 3.41%
percent inhibition of viability ([24]; 10 nM): 7.07%
percent inhibition of viability ([24]; 100 nM): 30.4%
percent inhibition of viability ([24]; 1000 nM): 82.5%
percent inhibition of viability ([24]; 10000 nM): 82.6%
percent inhibition of viability ([25]; 1 nM): -13.5%
percent inhibition of viability ([25]; 10 nM): -7.65%
percent inhibition of viability ([25]; 100 nM): -3.85%
percent inhibition of viability ([25]; 1000 nM): 9.37%
percent inhibition of viability ([25]; 10000 nM): -4.87%
percent inhibition of viability ([26]; 1 nM): 16.4%
percent inhibition of viability ([26]; 10 nM): 25.7%
percent inhibition of viability ([26]; 100 nM): 50.1%
percent inhibition of viability ([26]; 1000 nM): 58.8%
percent inhibition of viability ([26]; 10000 nM): 60.9%
percent inhibition of viability ([27]; 1 nM): -5.63%
percent inhibition of viability ([27]; 10 nM): 5.36%
percent inhibition of viability ([27]; 100 nM): 15.5%
percent inhibition of viability ([27]; 1000 nM): 20%
percent inhibition of viability ([27]; 10000 nM): 22.5%
drug sensitivity score [28]: 12.8

COc1cc(C(=O)NC2CCN(C)CC2)c(F)cc1Nc1ncc2c(n1)N(C1CCCC1)CC(F)(F)C(=O)N2C [TAK-960] (max concentration tested 2500 nM)
drug sensitivity score [1]: 0.63
drug sensitivity score [2]: 0
drug sensitivity score [3]: 0
drug sensitivity score [4]: 0.18
drug sensitivity score [5]: 13
drug sensitivity score [6]: 0
drug sensitivity score [7]: 0
drug sensitivity score [8]: 0.89
drug sensitivity score [9]: 0
drug sensitivity score [10]: 0
drug sensitivity score [11]: 0
drug sensitivity score [12]: 0
drug sensitivity score [13]: 0.16
percent inhibition of viability ([14]; 0.25 nM): -3.09%
percent inhibition of viability ([14]; 2.5 nM): 0.01%
percent inhibition of viability ([14]; 25 nM): 0.41%
percent inhibition of viability ([14]; 250 nM): 9.42%
percent inhibition of viability ([14]; 2500 nM): 8.37%
percent inhibition of viability ([15]; 0.25 nM): -4.4%
percent inhibition of viability ([15]; 2.5 nM): 4.01%
percent inhibition of viability ([15]; 25 nM): 9.33%
percent inhibition of viability ([15]; 250 nM): 8.23%
percent inhibition of viability ([15]; 2500 nM): 11.8%
percent inhibition of viability ([16]; 0.25 nM): -10.9%
percent inhibition of viability ([16]; 2.5 nM): -5.87%
percent inhibition of viability ([16]; 25 nM): 7.99%
percent inhibition of viability ([16]; 250 nM): -6.67%
percent inhibition of viability ([16]; 2500 nM): -0.88%
percent inhibition of viability ([17]; 0.25 nM): 1.09%
percent inhibition of viability ([17]; 2.5 nM): 0.71%
percent inhibition of viability ([17]; 25 nM): 8.79%
percent inhibition of viability ([17]; 250 nM): 0.43%
percent inhibition of viability ([17]; 2500 nM): 6.32%
percent inhibition of viability ([18]; 0.25 nM): -8.09%
percent inhibition of viability ([18]; 2.5 nM): -7.71%
percent inhibition of viability ([18]; 25 nM): 9.2%
percent inhibition of viability ([18]; 250 nM): -1.64%
percent inhibition of viability ([18]; 2500 nM): 15.2%
percent inhibition of viability ([19]; 0.25 nM): 22.6%
percent inhibition of viability ([19]; 2.5 nM): 22%
percent inhibition of viability ([19]; 25 nM): 36.4%
percent inhibition of viability ([19]; 250 nM): 38%
percent inhibition of viability ([19]; 2500 nM): 22.1%
percent inhibition of viability ([20]; 0.25 nM): -3.49%
percent inhibition of viability ([20]; 2.5 nM): 1.57%
percent inhibition of viability ([20]; 25 nM): 0.97%
percent inhibition of viability ([20]; 250 nM): 0.32%
percent inhibition of viability ([20]; 2500 nM): 6.84%
percent inhibition of viability ([21]; 0.25 nM): -17.8%
percent inhibition of viability ([21]; 2.5 nM): -2.17%
percent inhibition of viability ([21]; 25 nM): 0.04%
percent inhibition of viability ([21]; 250 nM): 4.31%
percent inhibition of viability ([21]; 2500 nM): 2.51%
percent inhibition of viability ([22]; 0.25 nM): -1.39%
percent inhibition of viability ([22]; 2.5 nM): -5.61%
percent inhibition of viability ([22]; 25 nM): -0.81%
percent inhibition of viability ([22]; 250 nM): -6.15%
percent inhibition of viability ([22]; 2500 nM): -11.4%
percent inhibition of viability ([23]; 0.25 nM): 7.7%
percent inhibition of viability ([23]; 2.5 nM): -2.83%
percent inhibition of viability ([23]; 25 nM): -1.46%
percent inhibition of viability ([23]; 250 nM): -9%
percent inhibition of viability ([23]; 2500 nM): 3.2%
percent inhibition of viability ([24]; 0.25 nM): 0.04%
percent inhibition of viability ([24]; 2.5 nM): 3.31%
percent inhibition of viability ([24]; 25 nM): 3.4%
percent inhibition of viability ([24]; 250 nM): 2.48%
percent inhibition of viability ([24]; 2500 nM): 6.51%
percent inhibition of viability ([25]; 0.25 nM): 11.1%
percent inhibition of viability ([25]; 2.5 nM): -6.28%
percent inhibition of viability ([25]; 25 nM): -3.33%
percent inhibition of viability ([25]; 250 nM): -13.8%
percent inhibition of viability ([25]; 2500 nM): -6.51%
percent inhibition of viability ([26]; 0.25 nM): -8.99%
percent inhibition of viability ([26]; 2.5 nM): -1.96%
percent inhibition of viability ([26]; 25 nM): -2.51%
percent inhibition of viability ([26]; 250 nM): -1.54%
percent inhibition of viability ([26]; 2500 nM): 2.64%
percent inhibition of viability ([27]; 0.25 nM): -10.9%
percent inhibition of viability ([27]; 2.5 nM): -4.09%
percent inhibition of viability ([27]; 25 nM): 10.7%
percent inhibition of viability ([27]; 250 nM): 0.25%
percent inhibition of viability ([27]; 2500 nM): 13.6%
drug sensitivity score [28]: 0
